Measurements as given in ChEMBL document CHEMBL1159347, “A novel constituent from Rollinia mucosa, rollicosin, and a new approach to develop annonaceous acetogenins as potential antitumor agents” (J Nat Prod, 2003).
Values after ≈ are worked out from the molar mass of the structure shown.

Assays:
[1] = Cytotoxicity against human HepG2(2.2.15) cells; assay type: functional, cell-based
[2] = tested on: HepG2; assay: Cytotoxicity against human HepG2 cells; assay type: functional, cell-based

COc1cccc2c1C(=O)c1c(O)c3c(c(O)c1C2=O)C[C@@](O)(C(=O)CO)C[C@@H]3O[C@H]1C[C@H](N)[C@H](O)[C@H](C)O1 [DOXORUBICIN]
IC50 [1]: 0.45 µg/mL (≈ 0.828 µM)

C[C@H]1C=C(C[C@H](O)CCCCCCCCCC[C@@H](O)[C@H]2CCC(=O)O2)C(=O)O1 [ROLLICOSIN]
IC50 [1]: 0.021 µg/mL (≈ 0.053 µM)
IC50 [2]: 0.1 µg/mL (≈ 0.252 µM)
